Test results as given in patent publication US7265139B2, “RXR activating molecules” (Incyte San Diego Inc., priority 2001, dated 2007).

Assays:
KKA^y mice = test: Antidiabetic activity in type 2 diabetic KKA^y mice; format: in vivo, mouse; settings: for Efficacious in KKAy Mice: efficacious = lowers glucose without increasing triglycerides
Procedure: Prior to commencing treatment, all of the animals are bled from the tail vein and serum levels of glucose and triglyceride are measured in duplicate. The animals are then sorted into different treatment groups with equal average triglyceride levels. The animals are treated with a single daily oral dose of the test compound suspended in sesame oil (dose volume of 3 ml/kg).
In short, adult diabetic KKA^y mice are housed in a fixed 12—12-hr artificial light-dark cycle, and maintained on a standard rodent diet. Prior to commencing treatment, all of the animals are bled from the tail vein and serum levels of glucose and triglyceride are measured in duplicate. The animals are then sorted into different treatment groups with equal average triglyceride levels. The animals are treated with a single daily oral dose ranging from 3-30 mg/kg of the test compound suspended in sesame oil (dose volume of 3-5 ml/kg). Following one week of treatment the animals are bled from the tail vein and Serum glucose and triglycerides are measured in duplicate.
In this example, compound 1, which belongs to the novel subclass of RXR ligands is compared to a typical RXR ligand like compound 2 in the treatment of KKA^y mice.
For this study, adult diabetic KKA^y mice were housed in a fixed 12—12-hr artificial light-dark cycle, and maintained on a standard rodent diet. Prior to commencing treatment, all of the animals are bled from the tail vein and serum levels of glucose and triglyceride are measured in duplicate. The animals are then sorted into different treatment groups with equal average triglyceride levels. The animals are treated with a single daily oral dose of the test compound suspended in sesame oil (dose volume of 3 ml/kg).

[1] = system: Mouse 3T3-L1 preadipocytes; test: 3T3-L1 adipocyte differentiation assay; format: cell-based; settings: 0.1 μM compared to Compound 1 at equal concentration; pre-adipocytes to adipocytes
Procedure: Mouse 3T3-L1 cells were grown in 96-well tissue culture plates containing growing medium (DME containing 10% calf serum (CS) plus glutamine-pen-strep) at a density of 3,000 cells/well. Two days after reaching confluence, cells are treated with the different compounds in DM (Day 0). Compound 1 is included in all the experiments, and its ability to differentiate 3T3-L1 cells at 0.1 μM is taken as reference for 100% differentiation. After 7 days the lipid content of the cells was determined.
Prior to testing compounds in vivo, they can be run through the in vitro adipocyte differentiation assay based on the protocol of Zhang, et al. (1996) Negative Regulation of Peroxisome Proliferator—Activated Receptor—γGene Expression Contributes to the Antiadipogenic effects of Tumor Necrosis Factor—α. Mol. Endo. 10:1457-1456, incorporated herein by reference. In short, mouse 3T3-L1 preadipocytes are grown in culture medium containing 10% calf serum supplemented with antibiotics. Two days after reaching confluence, cells are treated with the selected compound at different concentrations dissolved in medium containing 10% fetal calf serum supplemented with antibiotics and kept at 10% CO2. The test compounds are replaced every 2-3 days. Differentiation is assessed after 7 days of treatment by the lipid content in the cells, using the Triglyceride (INFINITY) reagent (Sigma Chemical, St. Louis, Mo.).
The ability of a compound to induce preadipocytes to differentiate into adipocytes is an indicator of its antidiabetic activity. This allows for screening many compounds in a simple in vitro assay, thus avoiding the task of testing all compounds in vivo. The adipocyte differentiation assay is based on the protocol of Zhang, et al. (1996) Negative Regulation of Peroxisome Proliferator-Activated Receptor-γ Gene Expression Contributes to the Antiadipogenic effects of Tumor Necrosis Factor—α. Mol. Endo. 10:1457-1456, incorporated herein by reference at least for material related to adipocyte differentiation assays. Mouse 3T3-L1 preadipocytes are grown in culture medium containing 10% calf serum supplemented with antibiotics. Two days after reaching confluence, cells are treated with the selected compound at different concentrations dissolved in medium containing 10% fetal calf serum supplemented with antibiotics and kept at 10% CO2. The test compounds are replaced every 2-3 days. Differentiation is assessed after 7 days of treatment by the lipid content in the cells, using the Triglyceride (INFINITY) reagent (Sigma Chemical, St. Louis, Mo.) (see FIG. 15).

RXR receptor = target: T1, RXR receptor (Homo sapiens, UniProt P19793); test: RXR activation (transient transfection reporter assay); format: cell-based; settings: 1 μM compared to 9-cis-RA at equal concentration
T1 construct: expressed in transfected cells
T1 sequence (P19793 1-462): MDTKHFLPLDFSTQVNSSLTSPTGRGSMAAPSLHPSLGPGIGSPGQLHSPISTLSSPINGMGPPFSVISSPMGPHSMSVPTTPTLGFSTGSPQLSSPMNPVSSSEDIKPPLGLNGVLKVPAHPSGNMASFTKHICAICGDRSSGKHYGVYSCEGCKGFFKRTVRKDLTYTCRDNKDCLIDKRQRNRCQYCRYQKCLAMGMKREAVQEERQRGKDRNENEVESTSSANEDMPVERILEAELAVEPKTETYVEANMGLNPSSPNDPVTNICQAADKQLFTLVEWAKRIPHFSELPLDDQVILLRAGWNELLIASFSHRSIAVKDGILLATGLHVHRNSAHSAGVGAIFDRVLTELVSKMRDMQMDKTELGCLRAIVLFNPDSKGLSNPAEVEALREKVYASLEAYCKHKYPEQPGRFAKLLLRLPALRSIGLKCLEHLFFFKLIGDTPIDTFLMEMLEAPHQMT
Description: RXR agonists activate the RXR receptor when interacting with RXR by binding to its binding pocket. This activation can be independent of whether the agonist, while interacting with portions of the ligand binding pocket, also interacts with side pocket 1. Activation, also often referred to as transcriptional activation, of RXR by agonists can be measured by a number of commonly used assays where the effect of the agonist ligand interacting with the RXR ligand binding pocket is to stimulate or induce transcription of a gene or genes in a cell. In one particular embodiment, transient transfection experiments (as described essentially by Zhang, et al. (1996) Negative Regulation of Peroxisome Proliferator—Activated Receptor—γ Gene Expression Contributes to the Antiadipogenic effects of Tumor Necrosis Factor—α. Mol. Endo. 10:1457-1456) can be used. In these cases, full length RXR proteins are expressed in living cells. Alternatively, hybrid proteins that contain a portion of another DNA binding domain and the ligand binding portion of the human RXRα receptor can be expressed in living cells instead of the full length RXR protein. Such hybrid proteins can bind to and activate specific reporter genes introduced into the same living cell and activation of such reporter genes is measured. The assays described here are very commonly used today by people skilled in the art of molecular biology experimenting. Transient transection assays are often used instead of ligand binding assays and can serve to measure or estimate an affinity of an RXR agonist ligand for RXR protein. The effective dose fifty (ED50, also called EC50) is the concentration of the ligand necessary to lead to one half maximal activation of the reporter gene in a living cell. Compounds that show 60% of the activity of the agonist 9-cis retenoic acid at 10^−6 M can be considered an RXR activator/agonist. Compounds which show 70% 80% 90% of the activity of the agonist 9-cis retinoic acid are also provided.
To confirm that the computer modeling/design of a compound does result in an RXR activator or RXR agonist, i.e. a compound that leads to RXR activation or transcriptional activation, commonly used assays can be applied, where the effect of the agonist or activator, interacting with the RXR ligand binding pocket is to stimulate or induce transcription of a gene or genes in a cell. In one particular embodiment, transient transfection experiments (as described essentially by Zhang, et al. (1996) Negative Regulation of Peroxisome Proliferator—Activated Receptor—γ Gene Expression Contributes to the Antiadipogenic effects of Tumor Necrosis Factor—α. Mol. Endo. 10:1457-1456) can be used. In these cases, full length RXR proteins are expressed in living cells. Alternatively, hybrid proteins that contain a portion of another DNA, binding domain and the ligand binding portion of the human RXRα receptor can be expressed in living cells instead of the fall length RXR protein. Such hybrid proteins can bind to and activate specific reporter genes introduced into the same living cell and activation of such reporter genes is measured (Brand, A. H. & Perrimon, 1993, Development, 118:401-415; Moya-Camarena, S. Y. et.al., 1999, J. Lipid Res., 40:1426:1433; Yi, Y. W. et al., 2000, Biochem. Biophys. Res. Commun., 272:193-198, each are herein incorporated by reference at least for material related to reporter assays). These assays not only measure binding of the ligand to its target, which could also be measured by an in vitro binding assay, but also measure the agonistic or activator activity of the compound. In such an assay, new compounds are compared to a standard activator like compound I or the natural agonist of RXR: 9-cis retinoic acid (see Example 7). For instance, all compounds that show at a given concentration at least 60% of the activity of 9-cis retinoic acid can be considered useful activators.

db/db mice = settings: at the concentrations used in the KKA^y study; cited from earlier work
BALB/c mice = test: Effect on serum triglyceride levels in wild type BALB/c mice; format: in vivo, mouse; settings: FIG. 13, p≦0.01
Procedure: The animals were treated with a single daily oral dose of the test compound suspended in sesame oil (dose volume of 5 ml/kg). […], Animas treated with 10 and 30 mg/kg of Compound 1, which are doses that are 30 and 100 times the efficacious does in diabetic db/db mice, respectively, caused no increase in serum triglyceride levels compared to vehicle treated control animals.
Test compounds are tested in wild type mice at 10-100 times the efficacious dose in diabetic mice. Typically, adult male BALB/c mice are housed in a fixed 12—12-hr artificial light-dark cycle, and maintained on a standard rodent diet. The animals are treated with a single daily oral dose of the test compound suspended in sesame oil (dose volume of 5 ml/kg) as also described in the examples. Approximately two weeks later the animals are bled from the tail vein, then necropsied following sacrifice by carbon dioxide asphyxiation. Several serum biochemical parameters are measured. Of special significance is the effect the selected compounds have on serum triglyceride levels compared to vehicle treated control animals.
For these studies, adult male BALB/c mice were housed in a fixed 12—12-hr artificial light-dark cycle, and maintained on a standard rodent diet. The animals were treated with a single daily oral dose of the test compound suspended in sesame oil (dose volume of 5 ml/kg).

[2] = following two weeks of treatment

| SMILES | Efficacious in KKAy Mice (KKA^y mice) | Differentiation Activity [1] | RXR Activation (RXR receptor) | also measured |
| --- | --- | --- | --- | --- |
| CO/N=C1\CCC(C)(C)c2cc(C)c(-c3cc(/C=C4\SC(=O)NC4=O)ccc3N(C)C)cc21 |  |  |  | melting point: 254 to 256 °C |
| Cc1cc2c(cc1C1(c3ccc(C(=O)O)cn3)CC1)C(C)(C)CCC2(C)C [Compound 5] | No | >100% |  |  |
| CCN1C(=O)CC(C)(C)c2cc(C)c(-c3cc(/C=C4\SC(=O)NC4=O)ccc3OC(F)(F)F)cc21 [Compound 8, 5-[3-(1-Ethyl-4,4,6-trimethyl-2-oxo-1,2,3,4-tetrahydro-quinolin-7-yl)-4-trifluoromethoxy-benzylidene]-thiazolidine-2,4-dione] | Yes | 95% | 90% |  |
| CO/N=C1\CCC(C)(C)c2cc(C)c(-c3cc(/C=C4\SC(=O)NC4=O)ccc3Cl)cc21 |  |  |  | melting point: 252 to 254 °C |
| COc1ccc(C=C2SC(=O)NC2=O)cc1-c1cc2c(cc1C)C(C)(C)CCC2(C)C [Compound 6] | No | >100% | >100% |  |
| Cc1cc2c(cc1-c1cc(C=C3SC(=O)NC3=O)ccc1N(C)C)C(C)(C)CCC2(C)C [Compound 3] | Yes | 100% | 120% |  |
| CC(C)Cc1cc(-c2cc(C=C3SC(=O)NC3=O)ccc2OC(F)(F)F)c2c(c1)C(C)(C)CO2 [Compound 9] | Yes | 30% | 125% |  |
| C=C(c1ccc(C(=O)O)cc1)c1cc2c(cc1C)C(C)(C)CCC2(C)C [Compound 2, reference compound] | No | >100% |  | glucose levels in type 2 diabetic db/db mice (db/db mice): lower; triglyceride levels in type 2 diabetic db/db mice (db/db mice): lower; serum glucose levels compared to vehicle treated controls (KKA^y mice; 5 and 15 mg/kg, single daily oral dose in sesame oil, FIG. 10): no difference; serum triglyceride levels compared to vehicle treated controls (KKA^y mice; 5 and 15 mg/kg, single daily oral dose, FIG. 11, statistically significant at 5 mg/kg): increase; glucose levels compared to vehicle treated controls (KKA^y mice; [2]): failed to decrease; triglyceride levels compared to vehicle treated controls (KKA^y mice; [2]): significantly increased; serum triglyceride levels compared to vehicle treated control animals (BALB/c mice; 50 and 100 mg/kg, daily oral, statistically significant at 100 mg/kg): increase; serum triglyceride levels compared to vehicle treated controls (BALB/c mice; similar excess over its effective glucose lowering dose in db/db mice): statistically significant, dose dependent increase |
| CO/N=C1\CCC(C)(C)c2cc(C)c(-c3cc(/C=C4\SC(=O)NC4=O)ccc3OC(F)(F)F)cc21 [Example 8, 3-[(1-Oxo-4,4,6-trimethyl-1,2,3,4-tetrahydronaphthalene-7-yl)-O-methyloxime]-4-trifluoromethoxy-benzylidene-2,4-thiazolidinedione] |  |  |  | melting point: 224 °C |
| CON=C1CCC(C)(C)c2cc(C)c(-c3cc(C=C4SC(=O)NC4=O)ccc3OC(F)(F)F)cc21 [Compound 7] | Yes | 80% | 100% | glucose lowering activity (KKA^y mice; FIG. 16): glucose lowering activity; triglyceride lowering activity (KKA^y mice; FIG. 17): triglyceride lowering activity |
| Cc1cc2c(cc1-c1cc(C=C3SC(=O)NC3=O)ccc1O)C(C)(C)CCC2(C)C [Compound 4] | No | >100% | >100% |  |
